Experiments:
Assay in all cases: relative viability (nuclei count vs DMSO), 5 days (fraction); higher = more cells survive
201T = system: 201T
Procedure, shortened: (§1)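 Relative viability is defined as nuclei in treated wells over nuclei in vehicle wells. Duplicate plates were run and medians reported. Lung cancer cell lines in 1536-well plates were dosed by pin tool one day after seeding, with one drug or with a fixed anchor-drug dose plus five library-drug doses (not always all listed) in √10 steps, and nuclei were counted after 5 days.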

A-427 = system: A-427
Procedure, shortened: as §1

BEN = system: BEN
Procedure, shortened: as §1

COR-L23 = system: COR-L23
Procedure, shortened: as §1

EKVX = system: EKVX
Procedure, shortened: as §1

HARA = system: HARA
Procedure, shortened: as §1

HCC-15 = system: HCC-15
Procedure, shortened: as §1

HCC-44 = system: HCC-44
Procedure, shortened: as §1

HCC-827 = system: HCC-827
Procedure, shortened: as §1

NCI-H1437 = system: NCI-H1437
Procedure, shortened: as §1

NCI-H1650 = system: NCI-H1650
Procedure, shortened: as §1

NCI-H1666 = system: NCI-H1666
Procedure, shortened: as §1

NCI-H1792 = system: NCI-H1792
Procedure, shortened: as §1

NCI-H1975 = system: NCI-H1975
Procedure, shortened: as §1

NCI-H2342 = system: NCI-H2342
Procedure, shortened: as §1

NCI-H23 = system: NCI-H23
Procedure, shortened: as §1

NCI-H358 = system: NCI-H358
Procedure, shortened: as §1

NCI-H441 = system: NCI-H441
Procedure, shortened: as §1

NCI-H596 = system: NCI-H596
Procedure, shortened: as §1

NCI-H650 = system: NCI-H650
Procedure, shortened: as §1

NCI-H838 = system: NCI-H838
Procedure, shortened: as §1

SK-MES-1 = system: SK-MES-1
Procedure, shortened: as §1

SW 900 = system: SW 900
Procedure, shortened: as §1

SMILES: CCN(CC)CCCCNc1ncc2cc(-c3cc(OC)cc(OC)c3)c(NC(=O)NC(C)(C)C)nc2n1 + Nc1ncn([C@H]2C[C@H](O)[C@@H](CO)O2)c(=O)n1 [Decitabine] (partner 2 µM)
- relative viability (201T; first compound 0.01 µM): 0.864
- relative viability (201T; first compound 0.03162 µM): 0.847
- relative viability (201T; first compound 0.1 µM): 0.86
- relative viability (201T; first compound 0.3162 µM): 0.857
- relative viability (201T; first compound 1 µM): 0.83
- relative viability (A-427; first compound 0.01 µM): 0.626
- relative viability (A-427; first compound 0.03162 µM): 0.506
- relative viability (A-427; first compound 0.1 µM): 0.518
- relative viability (A-427; first compound 0.3162 µM): 0.548
- relative viability (A-427; first compound 1 µM): 0.524
- relative viability (BEN; first compound 0.01 µM): 0.691
- relative viability (BEN; first compound 0.03162 µM): 0.728
- relative viability (BEN; first compound 0.1 µM): 0.808
- relative viability (BEN; first compound 0.3162 µM): 0.797
- relative viability (BEN; first compound 1 µM): 0.572
- relative viability (COR-L23; first compound 0.01 µM): 0.4
- relative viability (COR-L23; first compound 0.03162 µM): 0.445
- relative viability (COR-L23; first compound 0.1 µM): 0.461
- relative viability (COR-L23; first compound 0.3162 µM): 0.442
- relative viability (COR-L23; first compound 1 µM): 0.43
- relative viability (EKVX; first compound 0.03162 µM): 0.323
- relative viability (EKVX; first compound 0.1 µM): 0.329
- relative viability (EKVX; first compound 0.3162 µM): 0.314
- relative viability (EKVX; first compound 1 µM): 0.295
- relative viability (HARA; first compound 0.01 µM): 0.625
- relative viability (HARA; first compound 0.03162 µM): 0.557
- relative viability (HARA; first compound 0.1 µM): 0.636
- relative viability (HARA; first compound 0.3162 µM): 0.649
- relative viability (HARA; first compound 1 µM): 0.317
- relative viability (HCC-15; first compound 0.01 µM): 0.691
- relative viability (HCC-15; first compound 0.03162 µM): 0.635
- relative viability (HCC-15; first compound 0.1 µM): 0.655
- relative viability (HCC-15; first compound 0.3162 µM): 0.68
- relative viability (HCC-15; first compound 1 µM): 0.51
- relative viability (HCC-44; first compound 0.01 µM): 0.944
- relative viability (HCC-44; first compound 0.03162 µM): 0.915
- relative viability (HCC-44; first compound 0.1 µM): 1.02
- relative viability (HCC-44; first compound 0.3162 µM): 0.949
- relative viability (HCC-44; first compound 1 µM): 0.979
- relative viability (HCC-827; first compound 0.01 µM): 0.311
- relative viability (HCC-827; first compound 0.03162 µM): 0.369
- relative viability (HCC-827; first compound 0.1 µM): 0.346
- relative viability (HCC-827; first compound 0.3162 µM): 0.376
- relative viability (HCC-827; first compound 1 µM): 0.284
- relative viability (NCI-H1437; first compound 0.01 µM): 0.599
- relative viability (NCI-H1437; first compound 0.03162 µM): 0.541
- relative viability (NCI-H1437; first compound 0.1 µM): 0.592
- relative viability (NCI-H1437; first compound 0.3162 µM): 0.58
- relative viability (NCI-H1437; first compound 1 µM): 0.578
- relative viability (NCI-H1650; first compound 0.01 µM): 0.398
- relative viability (NCI-H1650; first compound 0.03162 µM): 0.381
- relative viability (NCI-H1650; first compound 0.1 µM): 0.397
- relative viability (NCI-H1650; first compound 0.3162 µM): 0.368
- relative viability (NCI-H1650; first compound 1 µM): 0.384
- relative viability (NCI-H1666; first compound 0.01 µM): 0.695
- relative viability (NCI-H1666; first compound 0.03162 µM): 0.791
- relative viability (NCI-H1666; first compound 0.1 µM): 0.761
- relative viability (NCI-H1666; first compound 0.3162 µM): 0.759
- relative viability (NCI-H1666; first compound 1 µM): 0.79
- relative viability (NCI-H1792; first compound 0.01 µM): 0.522
- relative viability (NCI-H1792; first compound 0.03162 µM): 0.552
- relative viability (NCI-H1792; first compound 0.1 µM): 0.536
- relative viability (NCI-H1792; first compound 0.3162 µM): 0.489
- relative viability (NCI-H1792; first compound 1 µM): 0.479
- relative viability (NCI-H1975; first compound 0.01 µM): 0.396
- relative viability (NCI-H1975; first compound 0.03162 µM): 0.395
- relative viability (NCI-H1975; first compound 0.1 µM): 0.381
- relative viability (NCI-H1975; first compound 0.3162 µM): 0.389
- relative viability (NCI-H1975; first compound 1 µM): 0.358
- relative viability (NCI-H2342; first compound 0.01 µM): 0.692
- relative viability (NCI-H2342; first compound 0.03162 µM): 0.668
- relative viability (NCI-H2342; first compound 0.1 µM): 0.697
- relative viability (NCI-H2342; first compound 0.3162 µM): 0.781
- relative viability (NCI-H2342; first compound 1 µM): 0.807
- relative viability (NCI-H23; first compound 0.01 µM): 0.297
- relative viability (NCI-H23; first compound 0.03162 µM): 0.307
- relative viability (NCI-H23; first compound 0.1 µM): 0.292
- relative viability (NCI-H23; first compound 0.3162 µM): 0.355
- relative viability (NCI-H23; first compound 1 µM): 0.326
- relative viability (NCI-H358; first compound 0.01 µM): 0.199
- relative viability (NCI-H358; first compound 0.03162 µM): 0.235
- relative viability (NCI-H358; first compound 0.1 µM): 0.227
- relative viability (NCI-H358; first compound 0.3162 µM): 0.24
- relative viability (NCI-H358; first compound 1 µM): 0.19
- relative viability (NCI-H441; first compound 0.01 µM): 0.118
- relative viability (NCI-H441; first compound 0.03162 µM): 0.265
- relative viability (NCI-H441; first compound 0.1 µM): 0.242
- relative viability (NCI-H441; first compound 0.3162 µM): 0.261
- relative viability (NCI-H441; first compound 1 µM): 0.244
- relative viability (NCI-H596; first compound 0.03162 µM): 1.15
- relative viability (NCI-H596; first compound 0.1 µM): 1.03
- relative viability (NCI-H596; first compound 0.3162 µM): 1.01
- relative viability (NCI-H596; first compound 1 µM): 0.893
- relative viability (NCI-H650; first compound 0.01 µM): 0.14
- relative viability (NCI-H650; first compound 0.03162 µM): 0.272
- relative viability (NCI-H650; first compound 0.1 µM): 0.33
- relative viability (NCI-H650; first compound 0.3162 µM): 0.332
- relative viability (NCI-H650; first compound 1 µM): 0.326
- relative viability (NCI-H838; first compound 0.01 µM): 0.481
- relative viability (NCI-H838; first compound 0.03162 µM): 0.484
- relative viability (NCI-H838; first compound 0.1 µM): 0.428
- relative viability (NCI-H838; first compound 0.3162 µM): 0.422
- relative viability (NCI-H838; first compound 1 µM): 0.418
- relative viability (SK-MES-1; first compound 0.01 µM): 0.435
- relative viability (SK-MES-1; first compound 0.03162 µM): 0.425
- relative viability (SK-MES-1; first compound 0.1 µM): 0.366
- relative viability (SK-MES-1; first compound 0.3162 µM): 0.318
- relative viability (SK-MES-1; first compound 1 µM): 0.356
- relative viability (SW 900; first compound 0.01 µM): 0.509
- relative viability (SW 900; first compound 0.03162 µM): 0.401
- relative viability (SW 900; first compound 0.1 µM): 0.459
- relative viability (SW 900; first compound 0.3162 µM): 0.416
- relative viability (SW 900; first compound 1 µM): 0.437

— the supplement of paper PMC10307832
